Measured values published in US20130040908A1, “SUBSTITUTION DERIVATIVES OF N6-BENZYLADENOSINE-5' -MONOPHOSPHATE, METHODS OF PREPARATION THEREOF, USE THEREOF AS MEDICAMENTS, AND THERAPEUTIC PREPARATIONS CONTAINING THESE COMPOUNDS” (BIOAPEX, S.R.O., priority 2010, published 2013).

Key:
[1] = test system: CEM (T-lymphoblastoid leukemia); assay: Calcein AM cytotoxicity assay, CEM; assay type: cell-based; conditions: 72 hours
Source text: (§1) Because toxic compounds negatively influence metabolic processes in cells, many standard cytotoxicity assays are based on measurement of metabolisation rate of various artificial substrates. Resulting product is then quantified e.g. by means of spectrometry. The assays can be easily modified for use in 96-well plates. For evaluation of cytotoxic effect of the novel substituted 9-substituted cytokinin derivatives of this invention, a microtiter assay based on quantification of metabolisation of Calcein AM was used. The assay is widely used in drug screening programs and in chemosensitivity testing. In the living cells, Calcein AM is enzymatically hydrolysed and accumulation of resulting calcein is manifested by green fluorescence.
(§2) Normal human fibroblasts BJ were used as a control for routine screening of the compounds. The cells were kept in Nunc/Corning 80 cm^2 plastic bottles and grown in cell culture medium (DMEM containing 5 g/l glucose, 2 mM glutamine, 100 U/ml penicillin, 100 μg/ml streptomycine, 10% fetal bovine serum and sodium hydrogencarbonate), the compounds were prepared according to the procedure of the present invention.
(§3) The cell suspensions were prepared and diluted according to the particular cell type and the expected target cell density (2.500-30.000 cells per well based on cell growth characteristics) and pippetted (80 μl) into 96-well plates. […] Tested compound was added in total volume of 20 μl of water at time zero. Usually, test compound was evaluated at six 3-fold dilutions. […] All drug concentrations were tested in triplicates. […] At the end of incubation period Calcein AM in PBS was added into final concentration of 1 μg/ml. After another 1 hour of incubation fluorescence (FD) was measured with the Labsystem FIA Reader Fluoroscan Ascent (UK). Growth inhibition (GI) was estimated using the following equitation: GI=(mean FDdrug exposed wells−mean FDblank)/(mean FDcontrol wells−mean FDblank)×100%.

[2] = test system: K-562 (human erythroleukemia); assay: Calcein AM cytotoxicity assay, K-562; assay type: cell-based
Source text: as §1, §2, §3

[3] = test system: G-361 (human malignant melanoma); assay: Calcein AM cytotoxicity assay, G-361; assay type: cell-based; conditions: G-361, 72 hours
Source text: as §1, §2, §3

[4] = test system: HL-60 (promyelocytic leukemia); assay: Calcein AM cytotoxicity assay, HL60; assay type: cell-based, human
Source text: as §1, §2, §3

Human lymphocytes = assay: Immunosuppressive activity, 3H-thymidine incorporation in concanavalin A activated lymphocytes; assay type: cell-based; conditions: 72 hours, [3H]-TdR
Source text: One of the most important parameters of specific cellular immunity is the proliferative response of lymphocytes to antigens or polyclonal mitogens. The majority of normal mammalian peripheral lymphocytes comprise resting cells. Antigens or nonspecific polyclonal mitogens have the capacity to activate lymphoid cells and this is accompanied by dramatic changes of intracellular metabolism (mitochondrial activity, protein synthesis, nucleic acids synthesis, formation of blastic cells and cellular proliferation). […] Variety of in vitro assays was developed to measure proliferative response of lymphocytes. The most commonly used is ^3H-thymidine incorporation method.
During cell proliferation, DNA has to be replicated before the cell is divided into two daughter cells. This close association between cell doublings and DNA synthesis is very attractive for assessing cell proliferation. If labelled DNA precursors are added to the cell culture, cells that are about to divide incorporate the labelled nucleotide into their DNA. Traditionally, those assays usually involve the use of radiolabelled nucleosides, particularly tritiated thymidine ([^3H]-TdR). The amount of [^3H]-TdR incorporated into the cellular DNA is quantified by liquid scintillation counting. Human heparinized peripheral blood was obtained from healthy volunteers by cubital vein punction. The blood was diluted in PBS (1:3) and mononuclear cells were separated by centrifugation in Ficoll-Hypaque density gradient (Pharmacia, 1.077 g/ml) at 2200 rpm for 30 minutes. Following centrifugation, lymphocytes were washed in PBS and resuspended in cell culture medium (RMPI 1640, 2 mM glutamine, 100 U/ml penicillin, 100 μg/ml streptomycin, 10% fetal calf serum and sodium bicarbonate).
The cells were diluted at target density of 1.100.000 cells/ml and were added by pipette (180 μl) into 96-well microtiter plates. Four-fold dilutions of the intended test concentration were added at time zero in 20 μl aliquots to the microtiter plate wells. Usually, test compound was evaluated at six 4-fold dilutions. In routine testing, the highest well concentration was 266.7 μM. All drug concentrations were examined in duplicates. All wells with exception of unstimulated controls were activated with 50 of concanavalin A (25 μg/ml). Incubations of cells with test compounds lasted for 72 hours at 37° C., in 5% CO2 atmosphere and 100% humidity. At the end of incubation period, the cells were assayed by using the [^3H]-TdR:
Cell cultures were incubated with 0.5 μCi (20 μl of stock solution 500 μCi/ml per well for 6 hours at 37° C. and 5% CO2. The automated cell harvester was used to lyse cells in water and adsorb the DNA onto glass-fiber filters in the format of microtiter plate. The DNA incorporated [^3H]-TdR was retained on the filter while unincorporated material passes through. The filters were dried at room temperature overnight, sealed into a sample bag with 10-12 ml of scintillant. The amount of [^3H]-TdR present in each filter (in cpm) was determined by scintillation counting in a Betaplate liquid scintillation counter. The effective dose of immunosuppressant (ED) was calculated using the following equation: ED=(CCPMdrug exposed well/mean CCPMcontrol wells)×100%. The ED50 value, the drug concentration inhibiting proliferation of 50% of lymphocytes, was calculated from the obtained dose response curves.

MCF-7 (breast carcinoma) = assay: Calcein AM cytotoxicity assay, MCF7; assay type: cell-based; conditions: MCF7, 72 hours
Source text: as §1, §2, §3

[5] = test system: HOS (human osteogenic sarcoma); assay: Calcein AM cytotoxicity assay, HOS; assay type: cell-based; conditions: 72 hours
Source text: as §1, §2, §3

Leukemia cell line CEM = assay: Flow cytometry of DNA fragmentation (sub-G1) in CEM cells; assay type: cell-based; conditions: IC50, triple IC50 and fivefold IC50
Protocol: One of the hallmarks of apoptosis is fragmentation of DNA. It can be measured by flowcytometry of the cells stained with propidium iodide. Because the fragmentation results in a loss of a fraction of the nuclear DNA, apoptotic cells have a lower DNA content than cells in G1 phase of cell cycle and can be detected as a subG1 peak in the histogram.
Leukemia cell line CEM was cultured in cell culture medium (DMEM containing 5 g/l glucose, 2 mM glutamine, 100 U/ml peniciline, 100 μg/ml streptomycine, 10% fetal calf serum and sodium bicarbonate). 24 hours before treatment, cell suspensions were centrifuged, diluted with fresh medium to concentration of 100000 cells per ml with fresh medium and pipetted in 10 ml aliquotes Petri dishes. After an incubation for a given time period, the cells were collected by centrifugation (4° C., 600 g), washed with PBS (4° C.) and fixed with 70% ethanol at −20° C. overnight. Low molecular weight DNA fragmentse were extracted with citrate buffer (11.36 g trisodium citrate dihydrate/1). The nuclei were stained with the solution of propidium iodide in PBS (10 μg/ml) containing RNase A (60 IU per sample). After 1 hour incubation the samples were analyzed by flowcytometry (excitation 488 nm, emission above 620 nm).

P388D1 leukemia = assay: In vivo anticancer activity, survival model of P388D1 leukemia; conditions: oral 250 mg/kg twice daily
Protocol: Screening of biological activity of compound 21 was performed on survival model of P388D1 leukemia transplanted intraperitoneally with 2.10^5 cells. DBA-2 mice were used as a host. One day following the leukemia transplantation, treatment with 21 was initiated. The drug was given orally by gastric gavages in total volume of 200 μl/dose twice daily at dose 250 mg/kg in two chemotherapy cycles (Days 1-3 and 7-9). The compound 21 was solubilized in 5% […], 30% polyethylene glycol 400, 65% tartar buffer (pH 3.0). Survival analysis of treated animals (10 mice/group) was preformed in comparison with vehicle treated mice using Kaplan-Meier method and the significance was evaluated by the log-rank test. Body weight of experimental animals was evaluated in parallel in order to reflect toxicity and efficacy of therapy. Comparative analysis of body weight was performed using non-parametric t-test.

caspase-3 = assay: Caspase-3 activity in CEM cells (Apo-ONE kit); assay type: cell-based; conditions: 10 μM, 12 and 24 hours
Protocol: In the course of apoptosis, caspase cascade is activated. Caspase-3 is an effector caspase that plays a role in the induction of some changes typical for apoptosis (chromatin condensation, DNA fragmentation). Leukemia cell line CEM was cultured in cell culture medium (DMEM containing 5 g/l glucose, 2 mM glutamine, 100 U/ml peniciline, 100 μg/ml streptomycine, 10% fetal calf serum and sodium bicarbonate). 24 hours before treatment, cell suspensions were centrifuged, diluted to concentration of 500000 cells per ml with fresh medium and pipetted in 50 μl, aliquotes into 96-well plate. After 12 and 24 hours of incubation with the test compound, the activity of caspase-3 was measured using commercial kit (Apo-ONE, Promega) that is based on quantification of hydrolysis of fluorogenic substrate Z-DEVD-R110 (excitation 480 nm/emission 520 nm). Reaction specificity was confirmed in a control experiment, when both test compound and caspase-3 inhibitor Ac-DEVD-CHO were added. All experiments were done in triplicate.

[6] = test system: Normal human fibroblasts BJ; assay: Calcein AM cytotoxicity assay, BJ fibroblasts; assay type: cell-based; conditions: 72 hours
Source text: as §1, §2, §3

Compound	GI50 [1] [µM]	GI50 ([2]; K-562, 72 hours) [µM]	GI50 ([4]; HL60, 72 hours) [nM]	Human lymphocytes ED50 (Human lymphocytes) [µM]	GI50 (MCF-7 (breast carcinoma)) [µM]	GI50 [5] [µM]	further results
O=P(O)(O)OC[C@H]1O[C@@H](n2cnc3c(NCc4cccc(F)c4)ncnc32)[C@H](O)[C@@H]1O [Compound 2, 6-(3-fluorobenzylamino)purine riboside-5′-monophosphate]	3.2	7.2	830	11.5	14.7	–	GI50 [3]: 14.6 µM
O=P(O)(O)OC[C@H]1O[C@@H](n2cnc3c(NCc4ccc(F)cc4)ncnc32)[C@H](O)[C@@H]1O [Compound 3, 6-(4-fluorobenzylamino)purine riboside-5′-monophosphate]	1.2	6.1	690	13.4	12.3	12.1	–
Cc1cccc(CNc2ncnc3c2ncn3[C@@H]2O[C@H](COP(=O)(O)O)[C@@H](O)[C@H]2O)c1 [Compound 13, 6-(3-methylbenzylamino)purine riboside-5′-monophosphate]	11.6	160	6600	7.5	71.7	–	–
COc1ccccc1CNc1ncnc2c1ncn2[C@@H]1O[C@H](COP(=O)(O)O)[C@@H](O)[C@H]1O [Compound 15, 6-(2-methoxybenzylamino)purine riboside-5′-monophosphate]	2.4	8.4	2100	–	113	20.1	–
O=P(O)(O)OC[C@H]1O[C@@H](n2cnc3c(NCc4ccccc4O)ncnc32)[C@H](O)[C@@H]1O [Compound 21, 6-(2-hydroxybenzylamino)purine riboside-5′-monophosphate]	–	–	–	6.7	–	–	DNA fragmentation (apoptotic sub-G1 fraction) (Leukemia cell line CEM): induction of DNA fragmentation; body weight of treated animals (P388D1 leukemia): only slight reduction; tolerability in animals (P388D1 leukemia): good tolerability; mean survival time (P388D1 leukemia; Days 1-3 and 7-9, vehicle group 13.9 days): 15.4 days; survival analysis (Kaplan-Meier, log-rank) (P388D1 leukemia; P=0.0409 versus vehicle): significantly better survival; activity of caspase-3 (caspase-3): activates caspase-3
O=P(O)(O)OC[C@H]1O[C@@H](n2cnc3c(NCc4cccc(O)c4)ncnc32)[C@H](O)[C@@H]1O [Compound 22, 6-(3-hydroxybenzylamino)purine riboside-5′-monophosphate]	49.8	92.4	19000	12.8	108	–	–
O=P(O)(O)OC[C@H]1O[C@@H](n2cnc3c(NCc4ccc(Cl)c(Cl)c4)ncnc32)[C@H](O)[C@@H]1O [Compound 25, 6-(3,4-dichlorobenzylamino)purine riboside-5′-monophosphate]	3.1	6.1	1000	–	82.8	112	GI50 [6]: 132 µM
Nc1ncnc2c1ncn2[C@@H]1O[C@H](COP(=O)(O)O)[C@@H](O)[C@H]1O [adenosine-5′-monophosphate, reference compound]	> 167	–	–	–	–	–	GI50 ([5]; Homo sapiens): > 167 µM; GI50 ([2]; Homo sapiens, K562, K-562, 72 hours): > 167 µM; GI50 ([3]; Homo sapiens): > 167 µM; GI50 ([4]; Homo sapiens, HL-60, HL60, 72 hours): > 167000 nM; GI50 ([6]; Homo sapiens, Fibroblast): > 167 µM; GI50 (MCF-7 (breast carcinoma); Homo sapiens): > 167 µM
zeatin riboside-5′-monophosphate [reference compound]	> 167	> 167	> 167000	–	> 167	> 167	GI50 [3]: > 167 µM; GI50 [6]: > 167 µM
